Results from ChEMBL document CHEMBL1201862, “PubChem BioAssay data set” (2004).
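96-well plates; 48 h exposure; 5 concentrations. Endpoints by linear interpolation between flanking doses. Not reached: highest tested concentration assigned. GI50: concentration for 50% inhibition of growth.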 Activity calls are given as the source filed them. No stated cut-off is given here; in the data, active = GI50 up to about 1.1 µM and inactive = higher.

Experiments:
Test in all cases: NCI anticancer screen, dose series, 48 h
[1] = tested on: 786-0
[2] = tested on: A498
[3] = tested on: A549
[4] = tested on: ACHN
[5] = tested on: BT-549
[6] = tested on: CAKI-1
[7] = tested on: CCRF-CEM
[8] = tested on: COLO 205
[9] = tested on: DU-145
[10] = tested on: EKVX
[11] = tested on: HCC 2998
[12] = tested on: HCT-116
[13] = tested on: HCT-15
[14] = tested on: HOP-62
[15] = tested on: HOP-92
[16] = tested on: HT-29
[17] = tested on: IGROV-1
[18] = tested on: KM12
[19] = tested on: LOX IMVI
[20] = tested on: M14
[21] = tested on: MCF7
[22] = tested on: MDA-MB-231
[23] = tested on: MDA-MB-435
[24] = tested on: MDA-N
[25] = tested on: MOLT-4
[26] = tested on: Malme-3M
[27] = tested on: NCI-H226
[28] = tested on: NCI-H23
[29] = tested on: NCI-H522
[30] = tested on: NCI/ADR-RES
[31] = tested on: OVCAR-3
[32] = tested on: OVCAR-4
[33] = tested on: OVCAR-5
[34] = tested on: OVCAR-8
[35] = tested on: PC-3
[36] = tested on: RPMI-8226
[37] = tested on: SF-268
[38] = tested on: SF-295
[39] = tested on: SF-539
[40] = tested on: SK-MEL-2
[41] = tested on: SK-MEL-5
[42] = tested on: SK-OV-3
[43] = tested on: SN12C
[44] = tested on: SR
[45] = tested on: SW-620
[46] = tested on: T47D
[47] = tested on: TK-10
[48] = tested on: U-251
[49] = tested on: UACC-257
[50] = tested on: UACC-62
[51] = tested on: UO-31
[52] = tested on: HL-60
[53] = tested on: Hs-578T
[54] = tested on: K562
[55] = tested on: NCI-H460
[56] = tested on: RXF 393
[57] = tested on: SK-MEL-28
[58] = tested on: SNB-19
[59] = tested on: SNB-75

c1ccc2c(c1)CC1=C(O2)c2ccccc2OC1
GI50 [1]: 16.6 µM (inactive)
GI50 [2]: 61.1 µM (inactive)
GI50 [3]: 47.3 µM (inactive)
GI50 [4]: 34.2 µM (inactive)
GI50 [5]: 25.1 µM (inactive)
GI50 [6]: 23.1 µM (inactive)
GI50 [7]: 32.7 µM (inactive)
GI50 [8]: 18.9 µM (inactive)
GI50 [9]: 35.9 µM (inactive)
GI50 [10]: 16.1 µM (inactive)
GI50 [11]: 21.8 µM (inactive)
GI50 [12]: 16.4 µM (inactive)
GI50 [13]: 25.8 µM
GI50 [14]: 74.5 µM (inactive)
GI50 [15]: 21.2 µM (inactive)
GI50 [16]: 31.6 µM (inactive)
GI50 [17]: 23.1 µM (inactive)
GI50 [18]: 29.1 µM (inactive)
GI50 [19]: 17.9 µM (inactive)
GI50 [20]: 38.2 µM (inactive)
GI50 [21]: > 100 µM (inactive)
GI50 [22]: 31.8 µM (inactive)
GI50 [23]: 27.3 µM (inactive)
GI50 [24]: 19.1 µM (inactive)
GI50 [25]: 23.9 µM (inactive)
GI50 [26]: 52.6 µM (inactive)
GI50 [27]: 50.2 µM (inactive)
GI50 [28]: 40.9 µM (inactive)
GI50 [29]: 19.5 µM (inactive)
GI50 [30]: 36.6 µM (inactive)
GI50 [31]: 21.3 µM (inactive)
GI50 [32]: 21.1 µM (inactive)
GI50 [33]: > 100 µM (inactive)
GI50 [34]: 35.7 µM (inactive)
GI50 [35]: 38.2 µM (inactive)
GI50 [36]: 21.8 µM (inactive)
GI50 [37]: 29.4 µM (inactive)
GI50 [38]: 39.1 µM (inactive)
GI50 [39]: 26.3 µM (inactive)
GI50 [40]: 23.5 µM (inactive)
GI50 [41]: 22.4 µM (inactive)
GI50 [42]: > 100 µM (inactive)
GI50 [43]: 19.6 µM (inactive)
GI50 [44]: 20.4 µM (inactive)
GI50 [45]: 19.8 µM (inactive)
GI50 [46]: 17 µM (inactive)
GI50 [47]: 33.2 µM (inactive)
GI50 [48]: 22.3 µM (inactive)
GI50 [49]: 28.2 µM (inactive)
GI50 [50]: 26.2 µM (inactive)
GI50 [51]: 41.2 µM (inactive)

CCOC(=O)C(=CNc1ccc(S(N)(=O)=O)cc1)C(=O)OCC
GI50 [1]: > 100 µM (inactive)
GI50 [2]: > 100 µM (inactive)
GI50 [3]: > 100 µM (inactive)
GI50 [4]: > 100 µM (inactive)
GI50 [6]: > 100 µM (inactive)
GI50 [7]: > 100 µM (inactive)
GI50 [8]: > 100 µM (inactive)
GI50 [9]: > 100 µM (inactive)
GI50 [10]: > 100 µM (inactive)
GI50 [11]: > 100 µM (inactive)
GI50 [12]: > 100 µM (inactive)
GI50 [13]: > 100 µM
GI50 [52]: > 100 µM (inactive)
GI50 [14]: > 100 µM (inactive)
GI50 [15]: > 100 µM (inactive)
GI50 [16]: > 100 µM (inactive)
GI50 [53]: > 100 µM (inactive)
GI50 [17]: > 100 µM (inactive)
GI50 [54]: > 100 µM (inactive)
GI50 [19]: > 100 µM (inactive)
GI50 [20]: > 100 µM (inactive)
GI50 [21]: > 100 µM (inactive)
GI50 [22]: > 100 µM (inactive)
GI50 [23]: > 100 µM (inactive)
GI50 [24]: > 100 µM (inactive)
GI50 [25]: > 100 µM (inactive)
GI50 [26]: > 100 µM (inactive)
GI50 [27]: > 100 µM (inactive)
GI50 [28]: > 100 µM (inactive)
GI50 [55]: > 100 µM (inactive)
GI50 [29]: > 100 µM (inactive)
GI50 [30]: > 100 µM (inactive)
GI50 [31]: > 100 µM (inactive)
GI50 [32]: > 100 µM (inactive)
GI50 [33]: > 100 µM (inactive)
GI50 [34]: > 100 µM (inactive)
GI50 [35]: > 100 µM (inactive)
GI50 [36]: > 100 µM (inactive)
GI50 [56]: > 100 µM (inactive)
GI50 [37]: > 100 µM (inactive)
GI50 [38]: > 100 µM (inactive)
GI50 [39]: > 100 µM (inactive)
GI50 [57]: > 100 µM (inactive)
GI50 [40]: > 100 µM (inactive)
GI50 [41]: > 100 µM (inactive)
GI50 [42]: > 100 µM (inactive)
GI50 [43]: > 100 µM (inactive)
GI50 [58]: > 100 µM (inactive)
GI50 [59]: > 100 µM (inactive)
GI50 [44]: > 100 µM (inactive)
GI50 [45]: > 100 µM (inactive)
GI50 [46]: > 100 µM (inactive)
GI50 [47]: > 100 µM (inactive)
GI50 [48]: > 100 µM (inactive)
GI50 [49]: > 100 µM (inactive)
GI50 [51]: > 100 µM (inactive)

CC(C)(C)c1ccc(O)c(C(O)c2cccnc2)c1 (stereo unspecified)
GI50 [1]: > 100 µM (inactive)
GI50 [3]: > 100 µM (inactive)
GI50 [4]: > 100 µM (inactive)
GI50 [5]: > 100 µM (inactive)
GI50 [6]: > 100 µM (inactive)
GI50 [7]: 96.6 µM (inactive)
GI50 [8]: > 100 µM (inactive)
GI50 [9]: > 100 µM (inactive)
GI50 [10]: > 100 µM (inactive)
GI50 [11]: 76 µM (inactive)
GI50 [12]: > 100 µM (inactive)
GI50 [13]: 72.1 µM
GI50 [14]: > 100 µM (inactive)
GI50 [16]: > 100 µM (inactive)
GI50 [53]: > 100 µM (inactive)
GI50 [17]: > 100 µM (inactive)
GI50 [54]: 81.5 µM (inactive)
GI50 [18]: > 100 µM (inactive)
GI50 [22]: > 100 µM (inactive)
GI50 [25]: > 100 µM (inactive)
GI50 [26]: > 100 µM (inactive)
GI50 [27]: > 100 µM (inactive)
GI50 [28]: > 100 µM (inactive)
GI50 [55]: > 100 µM (inactive)
GI50 [29]: > 100 µM (inactive)
GI50 [30]: 94.6 µM (inactive)
GI50 [31]: > 100 µM (inactive)
GI50 [33]: > 100 µM (inactive)
GI50 [34]: > 100 µM (inactive)
GI50 [56]: > 100 µM (inactive)
GI50 [37]: > 100 µM (inactive)
GI50 [39]: > 100 µM (inactive)
GI50 [57]: > 100 µM (inactive)
GI50 [41]: 35 µM (inactive)
GI50 [59]: 57 µM (inactive)
GI50 [45]: > 100 µM (inactive)
GI50 [46]: 5.87 µM (inactive)
GI50 [50]: 16.6 µM (inactive)
GI50 [51]: > 100 µM (inactive)
